Test results taken from US9150579B2, “Selective PI3K delta inhibitors” (Rhizen Pharmaceuticals SA, priority 2012, dated 2015).
Entries after “also recorded” stand apart in the source; their conditions may differ.

Legend:
[1] = Metabolic stability in human liver microsomes; type: in vitro ADME; settings: 1 μM test item, 60 minutes, NADPH
Method: (§1) Metabolic stability studies were conducted using mouse, rat, and human liver microsomes. The protocol for the studies with mouse, rat, and human liver microsomes (all from BD Gentest, USA) is provided below. In brief, 0.4 mg protein was preincubated with 2 mM NADPH (cofactor) in phosphate buffer (pH˜7.4) for 15 min at 37° C. and then added with 1 μM test item and incubated further for 60 minutes in triplicate. The reaction mixture was terminated with methanol containing an internal standard and centrifuged further to analyze the test item remaining in the supernatant by LC-MS/MS. The percent parent compound remaining was calculated in comparison with similar samples terminated at 0 minutes.

[2] = system: PI3Kδ signalling in basophils; test: Assay 4: Inhibition of PI3Kδ signalling in basophils from human whole blood (anti-FcεR1 induced CD63 expression); settings: read-out: EC50, inhibition of anti-FcεR1 mediated CD63 expression
Method: PI3Kδ signalling in basophils manifested by an alteration of anti-FcεR1 induced CD63 expression is a useful pharmacodynamic marker determined using the Flow2CAST® kit (Buhlmann Laboratories, Switzerland). Briefly, it involves the following steps: • Mix the anti-coagulated blood sample by inverting the venipuncture tube several times • Prepare fresh and pyrogen-free 3.5 ml polypropylene or polystyrene tubes suitable for Flow Cytometry measurements • Add 49 μl of patient's whole blood to each tube. • Add 1 μl of 10% DMSO (background) or compound (10% DMSO) to the assigned tubes and mix gently. Incubate at room temperature for 15 min • Pipette 50 μl of the Stimulation buffer (background) or anti-FcεRI Ab to each tube • Add 100 μl of Stimulation Buffer to each tube • Mix gently. […] (using an incubator will take about 10 minutes longer incubation time due to less efficient heat transfer) • Add 2 ml pre-warmed (18-28° C.) Lysing Reagent to each tube, mix gently • Incubate for 5-10 minutes at 18-28° C. • Centrifuge the tubes for 5 minutes at 500×g • Decant the supernatant by using blotting paper • Resuspend the cell pellet with 300-800 μl of Wash Buffer • Vortex gently and acquire the data on the flow cytometer within the same day. • Percent CD63 positive cells within the gated basophil population are to be determined in different treatment groups and normalized to vehicle control.

[3] = system: pAKT in AML patient bone marrow leukemic cells; test: Assay 6-II: pAKT analysis of AML patient bone marrow sample (pAKT ELISA); type: cell-based, human
Method: 6-II: pAKT analysis of AML patient bone marrow sample using pAKT ELISA kit: Mononuclear cells were extracted by the Ficoll method and seeded in plates. The cells were treated by different compounds for 48 hrs before they were analyzed by pAKT ELISA kit following the product protocol. Briefly, 1×10^6 cells were transferred into an ELISA kit well and lyzed with 10 μL 5× Cell Lysis Mix (phospho-AKT 1/2/3 (Ser473) InstantOne™ ELISA Kit, eBioscience, 85-86042). The cells were then incubated with 50 μl antibody cocktail for 1 hr at room temp. on a microplate shaker (˜300 rpm). After incubating with detection reagent, the result was measured using a SpectraMAX Plus microplate spectrophotometer set at 450 nm.

[4] = system: AKT phosphorylation in THP-1, HL-60, MOLT-4, RPMI-8226, or DLBCL cells; test: Assay 3: Inhibition of AKT phosphorylation in leukemic cell lines; type: cell-based; settings: 48 hours, Western Blotting
Method: Inhibition of AKT phosphorylation in leukemic cell lines: THP-1, HL-60, MOLT-4, RPMI-8226, or DLBCL cells were incubated with desired concentrations of compound for 48 hours. Cells were lysed and pAKT was determined by Western Blotting. Bands were quantified using ImageJ and normalized to actin.

[5] = system: AML patient bone marrow leukemic cells; test: Assay 6-I: Flow cytometry analysis of apoptotic induction in AML patient bone marrow leukemic cells; type: cell-based, human
Method: 6-I: Flow cytometry analysis of apoptotic induction in AML patient bone marrow leukemic cells upon compound treatment using Annexin V and 7-AAD staining: Mononuclear cells were extracted by the Ficoll method and seeded in plates. The cells were treated by different compounds for 48 hrs before they were analyzed by flow cytometry. After washing with PBS, 1×10^5 cells were stained by Annexin V-APC and 7-AAD. Annexin V positive staining measures total apoptotic cells, including early and late apoptotic cells. For Annexin V positive cells, 7-AAD negative signal reflects early apoptotic cells.

[6] = system: AML patient bone marrow leukemic cells; test: Assay 6-III: Cell proliferation analysis of AML patient bone marrow sample (MTS); type: cell-based, human
Method: 6-III: Cell proliferation analysis of AML patient bone marrow sample using MTS assay: Mononuclear cells were extracted by the Ficoll method and seeded in plates. The cells were treated by different compounds for 48 hrs and 72 hrs before they were analyzed by MTS assay following product instruction. Briefly, 20 μL of the MTS solution was added into each well containing the 100 μL cell suspension, followed by incubation for 4 hours at 37° C., in 95% humidity with presence of 5% CO2. The absorbance of 490 nm (A490) was read using SpectraMAX Plus microplate spectrophotometer.

[7] = Metabolic stability in rat liver microsomes; type: in vitro ADME; settings: 1 μM test item, 60 minutes, NADPH
Method: as §1

[8] = system: Human Multiple Myeloma Cells; test: Assay 6a: Screening for anticancer activity in human multiple myeloma cells; type: cell-based; settings: primary multiple myeloma patient cells
Method: Samples were taken from two patients with newly diagnosed stage II IgG Kappa and stage III IgG Lambd restricted disease. This screening was performed by inducing apoptosis using doses and times determined from the MTT assay. 1-5×10^5 cells were collected by centrifugation. The cells were re-suspended in 500 μl of 1× Binding Buffer. 5 μl of Annexin V-FITC and 5 μl of propidium iodide were added. The cells were incubated at room temperature for 5 minutes in the dark.
Quantification by flow cytometry: Annexin V-FITC binding was analyzed by flow cytometry (Ex=488 nm; Em=530 nm) using FITC signal detector (usually FL1) and PI staining using a phycoerythrin emission signal detector (usually FL2). The results are shown below and in FIG. 1.

Primary CLL cells = test: Assay 8: Screening for anticancer activity in human CLL cells; type: cell-based
Method: After 72 hours of incubation, CLL cells were evaluated for cytotoxicity using the colorimetric MTS reagent. Phosphorylated Akt (S473) was measured by flow cytometry after one hour of incubation of test compound and ten minutes of incubation with anti-IgM or anti-IgD. Akt phosphorylation was quantified by median fluorescent intensity (MFI). Of the seven CLL patient samples used for experiments, five had mutated IGHV, five had 13 q deletion or normal cytogenetics determined by fluorescent in situ hybridization, three were ZAP-70 negative, and seven were CD38 negative. IgM expression ranged between 13% and 90%, whereas IgD expression was uniformly elevated.

[9] = system: immortalized leukemic cells (B, T, and monocytic cell lines); test: Assay 7: Screening for anticancer activity in various leukemic cell lines (MTT); type: cell-based; settings: majority of B, 72-96 h, read-out: concentration for 50% growth inhibition
Method: Proliferation of immortalized leukemic cells representative of various indications was determined by a MTT (3-(4,5-Dimethylthiazol-2-yl)-2,5-diphenyl tetrazolium bromide) assay.

[10] = Metabolic stability in mouse liver microsomes; type: in vitro ADME; settings: 1 μM test item, 60 minutes, NADPH
Method: as §1

leukemic cells = test: Assay 5: Apoptosis in leukemic cell lines (in situ Caspase 3 kit); type: cell-based; settings: 24 hrs
Method: Apoptosis in leukemic cells was determined using an in situ Caspase 3 kit (Millipore, US) as outlined below: • Seed leukemic cells at a density of 1×10^6 cells/well in a 6 well plate • Add test compound/DMSO at desired concentrations • Incubate the plate for 24 hrs at 37° C. in 5% CO2 incubator • Collect cells in a 2 ml centrifuge tube • Add 1.6 μL of freshly prepared 5× FLICA reagent and mix cells by slightly flicking the tubes • Incubate tubes for 1 hour at 37° C. under 5% CO2 • Add 2 ml of 1× wash buffer to each tube and mix • Centrifuge cells at <400×g for 5 minutes at room temperature. • Carefully remove and discard supernatant, and gently vortex cell pellet to disrupt any cell-to-cell clumping. • Resuspend cell pellet in 300 ul of 1× wash buffer • Place 100 μL of each cell suspension into each of two wells of a black microtiter plate. Avoid creation of bubbles. • Read […] of each microwell using an excitation wavelength of 490 nm and an emission wavelength of 520 nm • Percent increase in caspase-3 activity manifested by an increase in fluorescence compared to the control blank is to be calculated.

With `CC(C)Oc1ccc(-c2nn([C@@H](C)c3oc4ccc(F)cc4c(=O)c3-c3cccc(F)c3)c3ncnc(N)c23)cc1F` [Compound B1, (S)-2-(1-(4-amino-3-(3-fluoro-4-isopropoxyphenyl)-1H-pyrazolo[3,4-d]pyrimidin-1-yl)ethyl)-6-fluoro-3-(3-fluorophenyl)-4H-chromen-4-one] as the compound, how does the “Metabolic stability in liver microsomes, Human (percent parent compound remaining)” value [1] read?
Its value is 74.9%.

What about the EC50 [2] of the same compound?
Its EC50 is no more than 100 nM.

What about the “AKT phosphorylation (dose dependence)” value [3] of the same compound?
Its value is “dose dependent reduction”.

And the inhibition at 0.3 µM ([3]; Homo sapiens, Bone marrow cell, 0.3 μM, 48 hrs)?
Its inhibition at 0.3 µM is greater than 50%.

And the inhibition at 1 µM [4]?
Its inhibition at 1 µM is 50 to 90%.

What about the “number of apoptotic cells” value [5] of the same compound?
The value was “concomitant increase in the number of apoptotic cells”.

And the “cell viability / proliferation” value [6]?
Its value is “dose dependent reduction in proliferation; also recorded: Dose dependent reduction in cell viability”.

And the “Metabolic stability in liver microsomes, Rat (percent parent compound remaining)” value [7]?
The value was 23.1%.

And the inhibition at 3 µM ([8]; Homo sapiens, Multiple myeloma cell, 3.0 μM, read-out: inhibition of PAKT)?
The inhibition at 3 µM was greater than 75%.

And the cell viability [8]?
Its cell viability is “Dose dependent reduction in cell viability”.

What about the “apoptosis (caspase-3+/7AAD+)” value (Primary CLL cells; 48 hours, 0.1 and 25.6 μM) of the same compound?
Its value is “significantly induced apoptosis”.

What about the “cytotoxicity (MTS)” value (Primary CLL cells; 72 hours, 0.1 and 25.6 μM) of the same compound?
The value was “significantly induced”.

And the “Akt phosphorylation (S473) induced by anti-surface immunoglobulin” value (Primary CLL cells; one hour compound, anti-IgM or anti-IgD, flow cytometry MFI)?
The value was “significantly abrogated this effect and returned Akt phosphorylation to baseline”.

And the IC50 [9]?
Its IC50 is 0.5 to 7.5 µM.

And the “Metabolic stability in liver microsomes, Mouse (percent parent compound remaining)” value [10]?
Its value is 36.6%.

What about the Caspase-3 activity (leukemic cells) of the same compound?
Its Caspase-3 activity is “dose-dependently induced Caspase-3 activity”.
